Common to all, as to assay: GloSensor forskolin-stimulated cAMP assay, NPFFR2 mutants
Common to all, as to format: cell-based
Background: cAMP levels reflect the balance of adenylyl cyclase and phosphodiesterase activity.

In assay [1] the target is T1, NPFFR2 mutants (Homo sapiens, UniProt Q9Y5X5, I414S).
T1 construct: expressed in transfected cells; host or cells: HEK293T (pcDNA3.1 NPFFR2 mutants)
The note with it: NPFFR2 I3127.32S, HEK293T, three independent experiments. An excerpt:
(§1) Figure 2 Interaction of hNPSF with NPFFR2. (A) Residues participating in the interactions between hNPSF and NPFFR2 in the transmembrane (TM) binding pocket are shown as sticks. Dashed lines indicate polar interactions and hydrogen bonds between residues. Zoomed-in views highlighting interactions of the C-terminal segment (residues −1 to −4, PQRF), middle segment (residues −5 to −8, FLFQ), and the N-terminal segment (residues −9 to −11, SQA) of hNPSF are enclosed in red, blue, and yellow boxes, respectively. (B) NPFFR2 residues interacting with hNPSF were mutated to alanine, and the impact of each mutation on the EC50 value (ΔpEC50) was investigated using a forskolin-stimulated cAMP assay, after confirming surface expression of each mutant by an ELISA-based surface expression assay (Appendix Fig. S5). Three independent experiments (with technical triplicates) were conducted for each mutant. The bar graphs represent the mean of ΔpEC50 values from each experiment, with error bars indicating SEM. Statistical analyses were performed using ordinary one-way ANOVA followed by Dunnett’s test, comparing to the wild-type response. ns (not significant, P > 0.05); *P < 0.05; **P < 0.01; ***P < 0.001. Source data are available online for this figure.
(§2) HEK293T cells were seeded at a density of 6 × 10^5 cells per well in a six-well cell culture plate (SPL) and co-transfected with expression plasmids encoding GloSensor™ and each NPFFR construct, using 1 µg to 4 µg of DNA per well according to the Lipofectamine™ 2000 Transfection Reagent (Invitrogen) protocol. After 48 h of incubation under standard conditions (37 °C, 5% CO2), the cells were detached using Accutase solution (Sigma-Aldrich) and washed with PBS. The cells were then pelleted by centrifugation, resuspended in CO2-independent medium (Gibco) supplemented with Firefly D-Luciferin (0.5 mg/ml, NanoLight), and distributed into a 96-well white plate (SPL). After a 2-hour incubation, serially diluted ligands and 0.5 μM forskolin were added to each well to detect ligand-induced signaling. Luminescence signals were measured using a Mithras LB940 instrument (Berthold) with a measurement time of 1 s per well.
(§3) Data from the GloSensor^TM cAMP signaling assays were analyzed using GraphPad Prism with a three-parameter logistic model to fit concentration-response curves for both wild-type (WT) and mutant receptors. Mutant expression levels and DNA amounts were adjusted to match WT conditions. ΔpEC50 values were calculated by subtracting the log EC50 of the WT receptor from that of each mutant. Results are presented as mean ± SEM from three independent biological replicates, each performed in duplicate or more. Error bars represent the SEM. Statistical significance was assessed using one-way ANOVA, followed by Dunnett’s tests comparisons to the WT receptor. Significance levels were reported as follows: ns (not significant, P > 0.05); *P < 0.05; **P < 0.01; ***P < 0.001.
(§4) Appendix Figure S5. GloSensorTM cAMP assays of mutants and wild-type NPFFR2.
(§5) The dose-response of cAMP assay data for each mutant (red) presented in Fig. 2B are compared against the wild-type NPFFR2 (blue). Each experiment was conducted after adjusting the mutant's expression level to that of the wild-type NPFFR2 (Appendix Fig. S3), and pcDNA3.1 was used to match the total amount of DNA transfected. Data points represent mean values from three independent experiments (each with technical triplicate), with error bars indicating SEM. Raw data were normalized to the vehicle -treated (0%) and 0.5 μM forskolin-treated (100%) responses.
(§6) (% of forskolin stimulation) […]

For assay [2], the target named is T2, NPFFR2 mutants (Homo sapiens, UniProt Q9Y5X5, Q227A).
T2 construct: expressed in transfected cells; host or cells: HEK293T (pcDNA3.1 NPFFR2 mutants)
T2 sequence (Q9Y5X5 103-522 Q227A): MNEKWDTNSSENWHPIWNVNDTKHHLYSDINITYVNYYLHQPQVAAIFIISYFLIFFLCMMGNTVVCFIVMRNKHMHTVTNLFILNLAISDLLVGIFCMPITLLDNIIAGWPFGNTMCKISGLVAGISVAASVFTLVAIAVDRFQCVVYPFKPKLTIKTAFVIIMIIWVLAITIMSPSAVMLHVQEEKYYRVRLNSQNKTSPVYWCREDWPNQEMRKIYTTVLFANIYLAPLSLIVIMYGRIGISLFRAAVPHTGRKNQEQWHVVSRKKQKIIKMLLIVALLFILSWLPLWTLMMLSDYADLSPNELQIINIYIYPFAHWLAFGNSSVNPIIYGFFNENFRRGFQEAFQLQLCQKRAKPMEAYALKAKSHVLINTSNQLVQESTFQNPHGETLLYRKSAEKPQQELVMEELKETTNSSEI
The following applies: NPFFR2 Q1253.32A, HEK293T, three independent experiments.
From the text: as §1, §2, §3, §4, §5, §6

Assay [3] addresses T3, NPFFR2 mutants (Homo sapiens, UniProt Q9Y5X5, R318A).
T3 construct: expressed in transfected cells; host or cells: HEK293T (pcDNA3.1 NPFFR2 mutants)
The following applies: NPFFR2 R2165.35A, HEK293T, three independent experiments.
From the text: as §1, §2, §3, §4, §5, §6

The target of assay [4] is T4, NPFFR2 mutants (Homo sapiens, UniProt Q9Y5X5, V231A).
T4 construct: expressed in transfected cells; host or cells: HEK293T (pcDNA3.1 NPFFR2 mutants)
T4 sequence (Q9Y5X5 103-522 V231A): as the sequence (Q9Y5X5 103-522 Q227A) above, with A125Q, V129A counted along it
The note with it: NPFFR2 V1293.36A, HEK293T, three independent experiments.
From the text: as §1, §2, §3, §4, §5, §6

Assay [5] has as its target T5, NPFFR2 mutants (Homo sapiens, UniProt Q9Y5X5, D207A).
T5 construct: expressed in transfected cells; host or cells: HEK293T (pcDNA3.1 NPFFR2 mutants)
The following applies: NPFFR2 D1052.64A, HEK293T, three independent experiments.
From the text: as §1, §2, §3, §4, §5, §6

Assay [6] has as its target T6, NPFFR2 mutants (Homo sapiens, UniProt Q9Y5X5, W213A).
T6 construct: expressed in transfected cells; host or cells: HEK293T (pcDNA3.1 NPFFR2 mutants)
The note with it: NPFFR2 W11123.50A, HEK293T, three independent experiments.
From the text: as §1, §2, §3, §4, §5, §6

Assay [7] deals with T7, NPFFR2 mutants (Homo sapiens, UniProt Q9Y5X5, E310A).
T7 construct: expressed in transfected cells; host or cells: HEK293T (pcDNA3.1 NPFFR2 mutants)
T7 sequence (Q9Y5X5 103-522 E310A): as the sequence (Q9Y5X5 103-522 Q227A) above, with A125Q, E208A counted along it
The note with it: NPFFR2 E20845.52A, HEK293T, three independent experiments.
From the text: as §1, §2, §3, §4, §5, §6

The target in assay [8] is T8, NPFFR2 mutants (Homo sapiens, UniProt Q9Y5X5, I414A).
T8 construct: expressed in transfected cells; host or cells: HEK293T (pcDNA3.1 NPFFR2 mutants)
T8 sequence (Q9Y5X5 103-522 I414A): as the sequence (Q9Y5X5 103-522 Q227A) above, with A125Q, I312A counted along it
The following applies: NPFFR2 I3127.32A, HEK293T, three independent experiments.
From the text: as §1, §2, §3, §4, §5, §6

Assay [9] addresses T9, NPFFR2 mutants (Homo sapiens, UniProt Q9Y5X5, V305A).
T9 construct: expressed in transfected cells; host or cells: HEK293T (pcDNA3.1 NPFFR2 mutants)
The following applies: NPFFR2 V203ECL2A, HEK293T, three independent experiments.
From the text: as §1, §2, §3, §4, §5, §6

Assay [10] has as its target T10, NPFFR2 mutants (Homo sapiens, UniProt Q9Y5X5, E289A).
T10 construct: expressed in transfected cells; host or cells: HEK293T (pcDNA3.1 NPFFR2 mutants)
The following applies: NPFFR2 E187ECL2A, HEK293T, three independent experiments.
From the text: as §1, §2, §3, §4, §5, §6

In assay [11] the target is T11, NPFFR2 mutants (Homo sapiens, UniProt Q9Y5X5, H421A).
T11 construct: expressed in transfected cells; host or cells: HEK293T (pcDNA3.1 NPFFR2 mutants)
T11 sequence (Q9Y5X5 103-522 H421A): as the sequence (Q9Y5X5 103-522 Q227A) above, with A125Q, H319A counted along it
The note with it: NPFFR2 H3197.39A, HEK293T, three independent experiments.
From the text: as §1, §2, §3, §4, §5, §6

For assay [12], the target named is T12, NPFFR2 mutants (Homo sapiens, UniProt Q9Y5X5, L141A).
T12 construct: expressed in transfected cells; host or cells: HEK293T (pcDNA3.1 NPFFR2 mutants)
T12 sequence (Q9Y5X5 103-522 L141A): as the sequence (Q9Y5X5 103-522 Q227A) above, with L39A, A125Q counted along it
The following applies: NPFFR2 L39NtA, HEK293T, three independent experiments.
From the text: as §1, §2, §3, §4, §5, §6

The results in this text go back to PMC12069643, “Structural insights into the selective recognition of RF-amide peptides by neuropeptide FF receptor 2” (EMBO Reports, 2025).

Structures are written as SMILES.

T3 sequence (Q9Y5X5 103-522 R318A): as the sequence (Q9Y5X5 103-522 Q227A) above, with A125Q, R216A counted along it
T9 sequence (Q9Y5X5 103-522 V305A): as the sequence (Q9Y5X5 103-522 Q227A) above, with A125Q, V203A counted along it
T5 sequence (Q9Y5X5 103-522 D207A): as the sequence (Q9Y5X5 103-522 Q227A) above, with D105A, A125Q counted along it
T6 sequence (Q9Y5X5 103-522 W213A): as the sequence (Q9Y5X5 103-522 Q227A) above, with W111A, A125Q counted along it
T10 sequence (Q9Y5X5 103-522 E289A): as the sequence (Q9Y5X5 103-522 Q227A) above, with A125Q, E187A counted along it
T1 sequence (Q9Y5X5 103-522 I414S): as the sequence (Q9Y5X5 103-522 Q227A) above, with A125Q, I312S counted along it

A word on the Emax: it is the greatest response seen or fitted, relative to the assay's reference. By EC50 is commonly meant the concentration at which the effect is half-maximal. For `CC(C)C[C@H](NC(=O)[C@H](Cc1ccccc1)NC(=O)[C@H](C)NC(=O)[C@H](CCC(N)=O)NC(=O)[C@@H](N)CO)C(=O)N[C@@H](Cc1ccccc1)C(=O)N[C@@H](CCC(N)=O)C(=O)N1CCC[C@H]1C(=O)N[C@@H](CCC(N)=O)C(=O)N[C@@H](CCCNC(=N)N)C(=O)N[C@@H](Cc1ccccc1)C(N)=O` [hNPSF], the maximal response (Emax) worked out at 75 ± 3% on NPFFR2 mutants [1] (HEK-293T); 59 ± 4% on NPFFR2 mutants [2] (HEK-293T); 85 ± 3% on NPFFR2 mutants [3] (HEK-293T); 79 ± 3% at NPFFR2 mutants [4] (HEK-293T); 69 ± 4% on NPFFR2 mutants [5] (HEK-293T); 78 ± 5% at NPFFR2 mutants [6] (HEK-293T). The Emax at NPFFR2 mutants [7] (HEK-293T) turned out to be 29 ± 11%; at NPFFR2 mutants [8] (HEK-293T) it was 63 ± 3%; on NPFFR2 mutants [9] (HEK-293T), 78 ± 3%; at NPFFR2 mutants [10] (HEK-293T), 75 ± 3%; on NPFFR2 mutants [11] (HEK-293T), 57 ± 2%; at NPFFR2 mutants [12] (HEK-293T), 70 ± 3%. For the same compound, the 50% effective concentration (EC50) is 31.6 nM at NPFFR2 mutants [1]; 1260 nM at NPFFR2 mutants [2]; 10 nM at NPFFR2 mutants [3]; 126 nM on NPFFR2 mutants [4]; 12.6 nM at NPFFR2 mutants [5]; 1260 nM on NPFFR2 mutants [6]. Besides, the EC50 is 3980 nM on NPFFR2 mutants [7]; 10 nM at NPFFR2 mutants [8]; 200 nM on NPFFR2 mutants [9]; 1 nM on NPFFR2 mutants [10]; 63.1 nM on NPFFR2 mutants [11]; 10 nM at NPFFR2 mutants [12].
